Source: patent US8524718B2, “Heteroaromatic derivatives and their use as positive allosteric modulators of metabotropic glutamate receptors” (Addex Pharma S.A., priority 2007, dated 2013)

Tests used:
[1] = target: T1, recombinant human mGluR4a receptors (Homo sapiens, UniProt Q14833); test: mGluR4 assay on HEK-expressing human mGluR4 (fluorescent cell based Ca2+ mobilization assay, FLIPR); settings: HEK-293 cells expressing hmGluR4; enhancement of EC25 glutamate response; mean of at least three independent experiments in duplicate; read-out: Ca^2+ Flux (mean EC50)
T1 construct: expressed in transfected cells
Text: mGluR4 Assay on HEK-Expressing Human mGluR4 The compounds of the present invention are positive allosteric modulators of mGluR4 receptor. Their activity was examined on recombinant human mGluR4a receptors by detecting changes in intracellular Ca^2+ concentration, using the fluorescent Ca^2+-sensitive dye Fluo-4-(AM) and a Fluorometric Imaging Plate Reader (FLIPR, Molecular Devices, Sunnyvale, Calif.) The cDNA encoding the human metabotropic glutamate receptor (hmGluR4), (accession number NM_000841.1, NCBI Nucleotide database browser), was subcloned into an expression vector containing also the hygromycin resistance gene. In parallel, the cDNA encoding a G protein allowing redirection of the activation signal to intracellular calcium flux was subcloned into a different expression vector containing also the puromycin resistance gene. Transfection of both these vectors into HEK293 cells with PolyFect reagent (Qiagen) according to supplier's protocol, and hygromycin and puromycin treatment allowed selection of antibiotic resistant cells which had integrated stably one or more copies of the plasmids. Positive cellular clones expressing hmGluR4 were identified in a functional assay measuring changes in calcium fluxes in response to glutamate or selective known mGluR4 orthosteric agonists and antagonists. HEK-293 cells expressing hmGluR4 were maintained in media containing DMEM, dialyzed Fetal Calf Serum (10%), Glutamax™ (2 mM), Penicillin (100 units/mL), Streptomycin (100 μg/mL), Geneticin (100 μg/mL) and Hygromycin-B (40 μg/mL) and puromycin (1 μg/mL) at 37° C./5% CO2. Human mGluR4 HEK-293 cells were plated out 24 hours prior to FLIPR^384 assay in black-walled, clear-bottomed, poly-L-ornithine-coated 384-well plates at a density of 25,000 cells/well in a glutamine/glutamate free DMEM medium containing foetal bovine serum (10%), penicillin (100 units/mL) and streptomycin (100 μg/mL) at 37 C/5% CO2. On the day of the assay, the medium was aspirated and the cells were loaded with a 3 μM solution of Fluo-4-AM (LuBioScience, Lucerne, Switzerland) in 0.03% pluronic acid. After 1 hour at 37 C/5% CO2, the non incorporated dye was removed by washing cell plate with the assay buffer and the cells were left in the dark at room temperature for six hours before testing. All assays were performed in a pH 7.4 buffered-solution containing 20 mM HEPES, 143 mM NaCl, 6 mM KCl, 1 mM MgSO4, 1 mM CaCl2, 0.125 mM sulfapyrazone, 0.1% glucose. After 10 s of basal fluorescence recording, various concentrations of the compounds of the invention were added to the cells. Changes in fluorescence levels were first monitored for 180 s in order to detect any agonist activity of the compounds. Then the cells were stimulated by an EC25 glutamate concentration for an additional 110 s in order to measure enhancing activities of the compounds of the invention. EC25 glutamate concentration is the concentration giving 25% of the maximal glutamate response. The concentration-response curves of representative compounds of the present invention were generated using the Prism GraphPad software (Graph Pad Inc, San Diego, USA). The curves were fitted to a four-parameter logistic equation: (Y=Bottom+(Top−Bottom)/(1+10^((Log EC50−X)*Hill Slope) allowing the determination of EC50 values. The Table 5 below represents the mean EC50 obtained from at least three independent experiments of selected molecules performed in duplicate.

T1 sequence (Q14833 33-912): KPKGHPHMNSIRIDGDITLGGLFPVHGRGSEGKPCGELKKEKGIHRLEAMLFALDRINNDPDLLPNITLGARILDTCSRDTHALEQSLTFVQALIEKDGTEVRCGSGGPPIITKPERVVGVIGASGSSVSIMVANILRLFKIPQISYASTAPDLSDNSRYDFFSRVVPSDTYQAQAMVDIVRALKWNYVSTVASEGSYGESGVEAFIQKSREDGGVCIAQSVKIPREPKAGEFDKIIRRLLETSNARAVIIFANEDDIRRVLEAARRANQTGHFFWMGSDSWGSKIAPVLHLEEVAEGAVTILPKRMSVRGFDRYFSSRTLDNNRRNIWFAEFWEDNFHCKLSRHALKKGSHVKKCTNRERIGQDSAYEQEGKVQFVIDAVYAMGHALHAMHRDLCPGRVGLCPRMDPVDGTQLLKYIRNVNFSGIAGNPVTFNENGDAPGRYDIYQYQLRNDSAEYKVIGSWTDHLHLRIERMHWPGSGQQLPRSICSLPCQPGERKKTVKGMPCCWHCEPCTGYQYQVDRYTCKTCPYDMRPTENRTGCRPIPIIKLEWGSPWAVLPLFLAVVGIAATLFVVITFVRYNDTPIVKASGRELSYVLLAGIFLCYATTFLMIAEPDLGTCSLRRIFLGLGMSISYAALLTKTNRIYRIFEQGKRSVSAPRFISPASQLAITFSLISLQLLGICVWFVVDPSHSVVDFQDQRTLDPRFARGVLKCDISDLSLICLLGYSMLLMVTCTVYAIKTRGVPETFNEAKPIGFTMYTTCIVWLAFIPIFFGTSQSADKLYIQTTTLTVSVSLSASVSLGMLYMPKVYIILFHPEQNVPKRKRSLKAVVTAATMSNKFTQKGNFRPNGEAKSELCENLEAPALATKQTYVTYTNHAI

SMILES | EC50 [1] [nM] | melting point
Cc1n[nH]cc1-c1nsc(Nc2ccccn2)n1 [Compound 1-5, 3-(3-Methyl-1H-pyrazol-4-yl)-N-(pyridin-2-yl)-1,2,4-thiadiazol-5-amine] | 1000 to 10000 | > 280 °C
CCCc1n[nH]cc1-c1nsc(Nc2ccccc2)n1 [Compound 1-8, N-Phenyl-3-(3-propyl-1H-pyrazol-4-yl)-1,2,4-thiadiazol-5-amine] | 1000 to 10000 | 170 to 172 °C
FC(F)(F)c1n[nH]cc1-c1nsc(Nc2ccccn2)n1 [Compound 1-10, N-(Pyridin-2-yl)-3-(3-(trifluoromethyl)-1H-pyrazol-4-yl)-1,2,4-thiadiazol-5-amine] | 500 to 1000 | > 260 °C
FC(F)(F)c1n[nH]cc1-c1csc(Nc2ccccn2)n1 [Compound 1-12, N-(Pyridin-2-yl)-4-(3-(trifluoromethyl)-1H-pyrazol-4-yl)thiazol-2-amine] | 500 to 1000 | 250 °C
Cc1n[nH]cc1-c1nsc(Nc2ccccc2)n1 [Compound 1-1, 3-(3-methyl-1H-pyrazol-4-yl)-N-phenyl-1,2,4-thiadiazol-5-amine] | 1000 to 10000 | 
c1ccc(Nc2nc(-c3cn[nH]c3)ns2)cc1 [Compound 1-6, N-Phenyl-3-(1H-pyrazol-4-yl)-1,2,4-thiadiazol-5-amine] | 1000 to 10000 | 192 °C
CC(=O)n1cc(-c2nsc(Nc3ccccc3)n2)c(C)n1 [Compound 1-2, 1-(3-Methyl-4-(5-(phenylamino)-1,2,4-thiadiazol-3-yl)-1H-pyrazol-1-yl)ethanone] | 1000 to 10000 | 204 to 208 °C
CCCc1n[nH]cc1-c1nsc(Nc2ccccn2)n1 [Compound 1-9, 3-(3-Propyl-1H-pyrazol-4-yl)-N-(pyridin-2-yl)-1,2,4-thiadiazol-5-amine] | 1000 to 10000 | 248 to 250 °C
Cc1sc(Nc2ncccc2F)nc1-c1cn[nH]c1 [Compound 1-46, N-(3-Fluoropyridin-2-yl)-5-methyl-4-(1H-pyrazol-4-yl)thiazol-2-amine] | < 500 | 300 °C (dec.)
Cc1n[nH]cc1-c1nsc(Nc2ccccc2Cl)n1 [Compound 1-3, N-(2-Chlorophenyl)-3-(3-methyl-1H-pyrazol-4-yl)-1,2,4-thiadiazol-5-amine] | 1000 to 10000 | 180 to 182 °C
Cc1n[nH]cc1-c1nsc(Nc2ccccc2F)n1 [Compound 1-4, N-(2-Fluorophenyl)-3-(3-methyl-1H-pyrazol-4-yl)-1,2,4-thiadiazol-5-amine] | 500 to 1000 | 
CC(C)c1n[nH]cc1-c1csc(Nc2ccccn2)n1 [Compound 1-13, 4-(3-Isopropyl-1H-pyrazol-4-yl)-N-(pyridin-2-yl)thiazol-2-amine] | 1000 to 10000 | 195 °C
Cc1sc(Nc2ccccn2)nc1-c1cn[nH]c1 [Compound 1-16, 5-Methyl-4-(1H-pyrazol-4-yl)-N-(pyridin-2-yl)thiazol-2-amine] | < 500 | 291 to 294 °C
FC(F)(F)c1sc(Nc2ccccn2)nc1-c1cn[nH]c1 [Compound 1-54, 4-(1H-Pyrazol-4-yl)-N-(pyridin-2-yl)-5-(trifluoromethyl)thiazol-2-amine] | 500 to 1000 | 250 °C (dec.)
N#Cc1sc(Nc2ccccn2)nc1-c1cn[nH]c1 [Compound 1-47, 4-(1H-Pyrazol-4-yl)-2-(pyridin-2-ylamino)thiazol-5-carbonitrile] | < 500 | 250 °C (dec.)
Cc1n[nH]cc1-c1csc(Nc2ccccc2)n1 [Compound 1-7, 4-(3-Methyl-1H-pyrazol-4-yl)-N-phenylthiazol-2-amine] | 1000 to 10000 | 200 to 202 °C

The remaining lines, values ahead:

EC50 [1] [nM] | melting point | SMILES
< 500 |  | Fc1sc(Nc2ccccn2)nc1-c1cn[nH]c1 [Compound 1-56, 5-Fluoro-4-(1H-pyrazol-4-yl)-N-(pyridin-2-yl)thiazol-2-amine]
< 500 | 282 to 285 °C | Clc1sc(Nc2ccccn2)nc1-c1cn[nH]c1 [Compound 1-32, 5-Chloro-4-(1H-pyrazol-4-yl)-N-(pyridin-2-yl)thiazol-2-amine]
< 500 | 290 °C (dec.) | Cc1sc(Nc2cccc(F)n2)nc1-c1cn[nH]c1 [Compound 1-33, N-(6-Fluoropyridin-2-yl)-5-methyl-4-(1H-pyrazol-4-yl)thiazol-2-amine]
< 500 | 196 to 198 °C | CCc1n[nH]cc1-c1csc(Nc2ccccn2)n1 [Compound 1-61, 4-(3-Ethyl-1H-pyrazol-4-yl)-N-(pyridin-2-yl)thiazol-2-amine]
< 500 | 211 to 213 °C | c1ccc(Nc2nc(-c3c[nH]nc3C3CC3)cs2)nc1 [Compound 1-60, 4-(3-Cyclopropyl-1H-pyrazol-4-yl)-N-(pyridin-2-yl)thiazol-2-amine]
< 500 | 295 °C (dec.) | Clc1cccc(Nc2nc(-c3cn[nH]c3)cs2)n1 [Compound 1-49, N-(6-Chloropyridin-2-yl)-4-(1H-pyrazol-4-yl)thiazol-2-amine]
< 500 | 306 °C | Cc1cccc(Nc2nc(-c3cn[nH]c3)c(C)s2)n1 [Compound 1-18, 5-Methyl-N-(6-methylpyridin-2-yl)-4-(1H-pyrazol-4-yl)thiazol-2-amine]
< 500 | 281 to 285 °C | Fc1cccc(Nc2nc(-c3cn[nH]c3)cs2)n1 [Compound 1-51, N-(6-Fluoropyridin-2-yl)-4-(1H-pyrazol-4-yl)thiazol-2-amine]
< 500 | 290 °C (dec.) | Cc1sc(Nc2cccc(Cl)n2)nc1-c1cn[nH]c1 [Compound 1-31, N-(6-Chloropyridin-2-yl)-5-methyl-4-(1H-pyrazol-4-yl)thiazol-2-amine]
< 500 | 255 to 257 °C | Cc1n[nH]cc1-c1csc(Nc2ccccn2)n1 [Compound 1-11, 4-(3-Methyl-1H-pyrazol-4-yl)-N-(pyridin-2-yl)thiazol-2-amine]
< 500 | 294 to 296 °C | Cc1sc(Nc2ccccn2)nc1-c1cnn(C(N)=O)c1 [Compound 1-27, 4-(5-Methyl-2-(pyridin-2-ylamino)thiazol-4-yl)-1H-pyrazole-1-carboxamide]
< 500 | > 300 °C | Cc1n[nH]cc1-c1nsc(Nc2cccc(F)n2)n1 [Compound 1-43, N-(6-Fluoropyridin-2-yl)-3-(3-methyl-1H-pyrazol-4-yl)-1,2,4-thiadiazol-5-amine]
< 500 | 261 to 262 °C | c1ccc(Nc2nc(-c3cn[nH]c3)cs2)nc1 [Compound 1-25, N-(4-(1H-pyrazol-4-yl)thiazol-2-yl)pyridin-2-amine]
< 500 | 259 to 260 °C | Cc1cccc(Nc2nc(-c3cn[nH]c3)cs2)n1 [Compound 1-53, N-(6-Methylpyridin-2-yl)-4-(1H-pyrazol-4-yl)thiazol-2-amine]
